Reference: patent US9695152B2, “3,4-dihydro-2H-isoquinoline-1-one and 2,3-dihydro-isoindol-1-one compounds” (Hoffmann-La Roche Inc., priority 2013, dated 2017)

Legend:
[1] = rat, cited from earlier work; for plasma aldosterone: 4 weeks (FAD286), 4 and 8 weeks (spironolactone) of treatment
human CYP11B1 = human CYP11B1 (Homo sapiens (Human), UniProt P15538); experiment: G-402 cellular enzyme assay, human CYP11B1 (cortisol release, HTRF); type: cell-based; details: G-402 cells expressing human CYP11B1, 1 μM Deoxycortisol
human CYP11B1, sequence (P15538 25-503): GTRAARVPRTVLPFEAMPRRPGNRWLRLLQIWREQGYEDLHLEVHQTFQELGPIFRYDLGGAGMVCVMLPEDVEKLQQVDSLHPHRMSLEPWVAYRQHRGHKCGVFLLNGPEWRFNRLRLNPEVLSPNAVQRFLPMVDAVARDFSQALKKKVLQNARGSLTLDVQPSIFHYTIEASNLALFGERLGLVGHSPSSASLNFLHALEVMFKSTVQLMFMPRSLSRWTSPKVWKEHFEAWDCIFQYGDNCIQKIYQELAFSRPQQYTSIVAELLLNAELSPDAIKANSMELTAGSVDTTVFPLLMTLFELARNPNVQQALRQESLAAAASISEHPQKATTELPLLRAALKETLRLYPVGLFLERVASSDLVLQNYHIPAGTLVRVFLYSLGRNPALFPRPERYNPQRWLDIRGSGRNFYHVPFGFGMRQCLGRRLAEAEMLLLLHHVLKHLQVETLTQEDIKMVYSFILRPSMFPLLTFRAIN
From the text: (§1) Herein we identified the use of the G-402 cell line as a host cell to ectopically express (transiently or stably) enzymes of the CYP11 family. Specifically we developed stable G-402 cells expressing ectopically human CYP11B1, human CYP11B2, human CYP11A1, cynmolgus CYP11B1 or cynomolgus CYP11B2 enzyme activity. Importantly the identified cell line G-402 expresses co-factors (adrenodoxin and adrenodoxin reductase) important for the activity of the CYP11 family and no relevant enzyme activity of the CYP11 family (in comparison to H295R cells) was detected in these cells. Therefore the G-402 cell line is uniquely suited as a host cell for the ectopic expression of enzymes from the CYP11 family.
(§2) G-402 cells can be obtained from ATCC (CRL-1440) and were originally derived from a renal leiomyoblastoma.
(§3) The expression plasmids contains the ORF for either human/cyno CYP11B1 or CYP11B2 under the control of a suitable promoter (CMV-promoter) and a suitable resistance marker (neomycin). Using standard techniques the expression plasmid is transfected into G-402 cells and these cells are then selected for expressing the given resistance markers. Individual cell-clones are then selected and assessed for displaying the desired enzymatic activity using 11-Deoxycorticosterone (Cyp11B2) or 11-Deoxycortisol (Cyp11B1) as a substrate.
(§4) G-402 cells expressing CYP11 constructs were established as described above and maintained in McCoy's 5a Medium Modified, ATCC Catalog No. 30-2007 containing 10% FCS and 400 μg/ml G418 (Geneticin) at 37° C. under an atmosphere of 5% CO2/95% air. Cellular enzyme assays were performed in DMEM/F12 medium containing 2.5% charcoal treated FCS and appropriate concentration of substrate (0.3-10 uM 11-Deoxycorticosterone, 11-Deoxycortisol or Corticosterone). For assaying enzymatic activity, cells were plated onto 96 well plates and incubated for 16 h. An aliquot of the supernatant is then transferred and analyzed for the concentration of the expected product (Aldosterone for CYP11B2; Cortisol for CYP11B1). The concentrations of these steroids can be determined using HTRF assays from CisBio analyzing either Aldosterone or Cortisol.
(§5) Inhibition of the release of produced steroids can be used as a measure of the respective enzyme inhibition by test compounds added during the cellular enzyme assay. The dose dependent inhibition of enzymatic activity by a compound is calculated by means of plotting added inhibitor concentrations (x-axes) vs. measured steroid/product level (y-axes). The inhibition is then calculated by fitting the following 4-parameter sigmoidal function (Morgan-Mercer-Flodin (MMF) model) to the raw data points using the least squares method:
(§6) [formula] wherein, A is the maximum y value, B is the EC50 factor determined using XLFit, C is the minimum y value and D is the slope value.
(§7) EC50 values for compounds claimed herein were tested with the G402-based assay system described. Cyp11B2 enzyme activity was tested in presence of 1 μM Deoxycorticosterone and variable amounts of inhibitors; Cyp11B1 enzyme activity was tested in presence of 1 μM Deoxycortisol and variable amounts of inhibitors.

CYP11B2 [2] = molecular target: T1, CYP11B2 (Homo sapiens (Human), UniProt P19099); experiment: G-402 cellular enzyme assay, human CYP11B2 (aldosterone release, HTRF); type: cell-based; details: G-402 cells expressing human CYP11B2, 1 μM Deoxycorticosterone
T1 sequence (P19099 25-503): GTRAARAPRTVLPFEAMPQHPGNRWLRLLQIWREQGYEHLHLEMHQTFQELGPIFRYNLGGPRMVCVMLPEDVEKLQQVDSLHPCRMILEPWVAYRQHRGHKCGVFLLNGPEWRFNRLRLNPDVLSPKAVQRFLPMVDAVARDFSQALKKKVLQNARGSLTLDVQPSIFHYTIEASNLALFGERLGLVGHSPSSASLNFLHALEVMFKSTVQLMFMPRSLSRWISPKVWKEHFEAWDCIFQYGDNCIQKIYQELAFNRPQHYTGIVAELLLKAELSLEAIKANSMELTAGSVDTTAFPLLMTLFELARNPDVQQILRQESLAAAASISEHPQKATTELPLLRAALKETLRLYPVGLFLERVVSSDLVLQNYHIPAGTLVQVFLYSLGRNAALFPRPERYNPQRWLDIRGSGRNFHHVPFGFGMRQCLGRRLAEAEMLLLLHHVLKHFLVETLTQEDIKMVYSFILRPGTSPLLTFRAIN
From the text: as §1, §2, §3, §4, §5, §6, §7

[3] = rats with experimental heart failure; cited from earlier work
CYP11B2 [4] = molecular target: T1, CYP11B2; details: patients with primary aldosteronism, cited from earlier work

| SMILES | EC50 (human CYP11B1) [nM] | EC50 (CYP11B2 [2]) [nM] | other results |
| --- | --- | --- | --- |
| CC(=O)S[C@@H]1CC2=CC(=O)CC[C@]2(C)[C@H]2CC[C@@]3(C)[C@@H](CC[C@@]34CCC(=O)O4)[C@H]12 [spironolactone] |  |  | plasma aldosterone [1]: increased; angiotensin II and salt-stimulated PAI-1 mRNA expression in the aorta and the heart [1]: enhanced |
| CC1(C)c2cc(Cl)ccc2C(=O)N1c1cncc(NC2CN(S(=O)(=O)C3CC3)C2)c1 [Example 1, 5-Chloro-2-[5-[(1-cyclopropylsulfonylazetidin-3-yl)amino]pyridin-3-yl]-3,3-dimethylisoindol-1-one] | 1250 | 9 |  |
| N#Cc1ccc([C@H]2CCCc3cncn32)cc1 [FAD286] |  |  | plasma aldosterone [1]: reduced; angiotensin II and salt-stimulated PAI-1 mRNA expression in the aorta and the heart [1]: not; blood pressure and cardiovascular function and structure [3]: improved |
| Cc1ccncc1C(=O)N1CC(Nc2cncc(N3C(=O)c4ccc(Cl)cc4C3(C)C)c2)C1 [Example 10, 5-Chloro-3,3-dimethyl-2-[5-[[1-(4-methylpyridin-3-carbonyl)azetidin-3-yl]amino]pyridin-3-yl]isoindol-1-one] | 1740 | 11 |  |
| C[C@H]1c2cc(Cl)ccc2C(=O)N1c1cncc(NC2CN(C(=O)c3ncccc3Cl)C2)c1 (single isomer, unassigned) [Example 28, (3S or 3R)-5-Chloro-2-[5-[[1-(3-chloropyridine-2-carbonyl)azetidin-3-yl]amino]-3-pyridyl]-3-methyl-isoindolin-1-one] | 533 | 27 |  |
| C[C@@H]1c2cc(Cl)ccc2C(=O)N1c1cncc(NC2CN(S(=O)(=O)C3CC3)C2)c1 (single isomer, unassigned) [Example 30, (3S or 3R)-5-Chloro-2-[5-[(1-cyclopropylsulfonylazetidin-3-yl)amino]-3-pyridyl]-3-methyl-isoindolin-1-one] | 652 | 18 |  |
| Cc1noc(C)c1C(=O)N1CC(Nc2cncc(N3CCc4cc(Cl)ccc4C3=O)c2)C1 [Example 20, 6-Chloro-2-[5-[[1-(3,5-dimethylisoxazole-4-carbonyl)azetidin-3-yl]amino]-3-pyridyl]-3,4-dihydroisoquinolin-1-one] | 3880 | 55 |  |
| CC1(C)c2cc(Cl)ccc2C(=O)N1c1cncc(NC2CCCN(S(=O)(=O)C3CC3)C2)c1 (single isomer, unassigned; (-)) [Example 8, (−)-5-Chloro-2-[5-[[3S or 3R)-1-cyclopropylsulfonylpiperidin-3-yl]amino]pyridin-3-yl]-3,3-dimethylisoindol-1-one] | 19500 | 365 |  |
| CC1c2cc(Cl)ccc2C(=O)N1c1cncc(NC2CN(C(=O)c3ncccc3Cl)C2)c1 (centres unmarked) [Example 12, 5-Chloro-2-[5-[[1-(3-chloropyridine-2-carbonyl)azetidin-3-yl]amino]pyridin-3-yl]-3-methyl-3H-isoindol-1-one] | 1830 | 18 |  |
| C[C@@H]1c2cc(Cl)ccc2C(=O)N1c1cncc(NC2CN(C(=O)c3ncccc3Cl)C2)c1 (single isomer, unassigned) [Example 27, (3R or 3S)-5-Chloro-2-[5-[[1-(3-chloropyridine-2-carbonyl)azetidin-3-yl]amino]-3-pyridyl]-3-methyl-isoindolin-1-one] | 1130 | 20 |  |
| Cn1ccnc1C(=O)N1CC(Nc2cncc(N3CCc4cc(Cl)ccc4C3=O)c2)C1 [Example 22, 6-Chloro-2-[5-[[1-(1-methylimidazole-2-carbonyl)azetidin-3-yl]amino]-3-pyridyl]-3,4-dihydroisoquinolin-1-one] | 2090 | 23 |  |
| O=C(c1ncccc1Cl)N1CC(Nc2cncc(N3CCc4cc(Cl)ccc4C3=O)c2)C1 [Example 17, 6-Chloro-2-[5-[[1-(3-chloropyridine-2-carbonyl)azetidin-3-yl]amino]pyridin-3-yl]-3,4-dihydroisoquinolin-1-one] | 1910 | 145 |  |
| C[C@@H]1c2cc(Cl)ccc2C(=O)N1c1cncc(NC2CN(S(=O)(=O)C3CC3)C2)c1 (single isomer, unassigned) [Example 29, (3R or 3S)-5-Chloro-2-[5-[(1-cyclopropylsulfonylazetidin-3-yl)amino]-3-pyridyl]-3-methyl-isoindolin-1-one] | 5810 | 29 |  |
| N#Cc1ccc([C@H]2CCc3cncn32)c(F)c1 [LCI699] |  |  | circulating aldosterone levels (CYP11B2 [4]; oral): significantly lower; blood pressure (CYP11B2 [4]): mildly decreased; hypokalemia (CYP11B2 [4]): corrected |

Second part, led by results:

| EC50 (human CYP11B1) [nM] | EC50 (CYP11B2 [2]) [nM] | SMILES | other results |
| --- | --- | --- | --- |
| 7000 | 12 | CC1(C)c2cc(C#N)ccc2C(=O)N1c1cncc(NC2CN(S(=O)(=O)C3CC3)C2)c1 [Example 31, 2-[5-[(1-Cyclopropylsulfonylazetidin-3-yl)amino]-3-pyridyl]-3,3-dimethyl-1-oxo-isoindoline-5-carbonitrile] |  |
| 9570 | 52 | Cn1cc(C(=O)N2CCC(Nc3cncc(N4C(=O)c5ccc(C#N)cc5C4(C)C)c3)CC2)cn1 [Example 40, 3,3-Dimethyl-2-[5-[[1-(1-methylpyrazole-4-carbonyl)-4-piperidyl]amino]-3-pyridyl]-1-oxo-isoindoline-5-carbonitrile] |  |
| 10600 | 56 | Cn1cncc1C(=O)N1CCC(Nc2cncc(N3C(=O)c4ccc(C#N)cc4C3(C)C)c2)CC1 [Example 42, 3,3-Dimethyl-2-[5-[[1-(3-methylimidazole-4-carbonyl)-4-piperidyl]amino]-3-pyridyl]-1-oxo-isoindoline-5-carbonitrile] |  |
| 29500 | 31 | Cn1cc(C(=O)N2CC(Nc3cncc(N4C(=O)c5ccc(C#N)cc5C4(C)C)c3)C2)cn1 [Example 33] |  |
| 1200 | 31 | CC1(C)c2cc(C#N)ccc2C(=O)N1c1cncc(NC2CN(C(=O)c3ncccc3Cl)C2)c1 [Example 38, 2-[5-[[1-(3-Chloropyridine-2-carbonyl)azetidin-3-yl]amino]-3-pyridyl]-3,3-dimethyl-1-oxo-isoindoline-5-carbonitrile] |  |
| 190 | 17 | Cn1ccnc1C(=O)N1CCC(Nc2cncc(N3C(=O)c4ccc(C#N)cc4C3(C)C)c2)CC1 [Example 41, 3,3-Dimethyl-2-[5-[[1-(1-methylimidazole-2-carbonyl)-4-piperidyl]amino]-3-pyridyl]-1-oxo-isoindoline-5-carbonitrile] |  |
| 13900 | 25 | Cn1cncc1C(=O)N1CC(Nc2cncc(N3C(=O)c4ccc(C#N)cc4C3(C)C)c2)C1 [Example 39, 3,3-Dimethyl-2-[5-[[1-(3-methylimidazole-4-carbonyl)azetidin-3-yl]amino]-3-pyridyl]-1-oxo-isoindoline-5-carbonitrile] |  |
